Source: PubChem BioAssay AID330 (DTP/NCI, 2004)
Where “and” joins values, the source holds several entries; their conditions need not be identical. Identical values can stand only once. Inconclusive results and toxic doses are left out. Square brackets hold non-standard residues; d marks the D form. Peptide text beside a SMILES is read from it. * marks the point of attachment. ξ: configuration not given here. Cbz = O=C(OCc1ccccc1)*; ξL = CC(C)CC(N)C(=O)O; OBn = c1ccc(CO*)cc1

Test system: P388 leukemia ip, CD2F1 mice, survival T/C
Assay: NCI In Vivo Anticancer Drug Screen. Data for tumor model P388 Leukemia (intraperitoneal) in CD2F1 (CDF1) mice
Settings: endpoint: median survival time, higher = longer survival
Outline: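 Mice carrying the transplanted tumor received test compound or vehicle. Survival was recorded in each group, and the value is the treated-group measurement divided by that of the vehicle-treated control group.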

[1] = dose: 50.0 mg/kg/injection, schedule: Q01DX005 (ip), vehicle: saline with Tween-80
[2] = dose: 100.0 mg/kg/injection, schedule: Q01DX005 (ip), vehicle: saline with Tween-80
[3] = dose: 200.0 mg/kg/injection, schedule: Q01DX005 (ip), vehicle: saline with Tween-80
[4] = dose: 50.0 mg/kg/injection, schedule: Q01DX005 (ip), vehicle: Klucel (hydroxypropylcellulose) (HPC)
[5] = dose: 100.0 mg/kg/injection, schedule: Q01DX005 (ip), vehicle: Klucel (hydroxypropylcellulose) (HPC)
[6] = dose: 200.0 mg/kg/injection, schedule: Q01DX005 (ip), vehicle: Klucel (hydroxypropylcellulose) (HPC)
[7] = dose: 12.5 mg/kg/injection, schedule: Q01DX009 (ip), vehicle: other
[8] = dose: 25.0 mg/kg/injection, schedule: Q01DX009 (ip), vehicle: other
[9] = dose: 50.0 mg/kg/injection, schedule: Q01DX009 (ip), vehicle: other
[10] = dose: 100.0 mg/kg/injection, schedule: Q01DX009 (ip), vehicle: other
[11] = dose: 200.0 mg/kg/injection, schedule: Q01DX009 (ip), vehicle: other
[12] = dose: 60.0 mg/kg/injection, schedule: Q01DX005 (ip), vehicle: saline with Tween-80
[13] = dose: 120.0 mg/kg/injection, schedule: Q01DX005 (ip), vehicle: saline with Tween-80
[14] = dose: 50.0 mg/kg/injection, schedule: Q01DX005 (ip), vehicle: saline
[15] = dose: 100.0 mg/kg/injection, schedule: Q01DX005 (ip), vehicle: saline
[16] = dose: 200.0 mg/kg/injection, schedule: Q01DX005 (ip), vehicle: saline

SMILES: CC(C)CC(NC(=O)OCc1ccccc1)C(=O)NCC(=O)NCC(=O)OCc1ccccc1 (stereo not drawn) (Cbz-[ξL]-Gly-Gly-OBn)
- T/C [1]: 105 % of control
- T/C [2]: 105 % of control
- T/C [3]: 102 % of control

SMILES: COC(=O)C(CO)NC(=O)C(NC(=O)OCc1ccccc1)C(C)O (stereo not drawn) (Cbz-Thr-Ser-OMe; configuration not given here)
- T/C [4]: 118 % of control
- T/C [5]: 101 % of control
- T/C [6]: 108 % of control

SMILES: CC(=O)OC12CCCCC1C1(CCCCC1)N=[N+]2[O-] (centres undefined)
- T/C [7]: 105 % of control
- T/C [8]: 115 % of control
- T/C [9]: 100 % of control
- T/C [10]: 99 % of control
- T/C [11]: 112 % of control

SMILES: CC(=O)OCc1cc(-c2nc3ccccc3[nH]c2=O)nn1-c1ccc(Cl)cc1
- T/C (dose: 25.0 mg/kg/injection, schedule: Q01DX005 (ip), vehicle: distilled water + alcohol): 93 % of control
- T/C (dose: 50.0 mg/kg/injection, schedule: Q01DX005 (ip), vehicle: distilled water + alcohol): 90 % of control
- T/C (dose: 100.0 mg/kg/injection, schedule: Q01DX005 (ip), vehicle: distilled water + alcohol): 86 % of control
- T/C (dose: 200.0 mg/kg/injection, schedule: Q01DX005 (ip), vehicle: distilled water + alcohol): 87 % of control

SMILES: CCc1ccc(C(=O)N/N=C(\C)[C@]2(O)Cc3c(O)c4c(c(O)c3[C@@H](OC3CC(N)C(O)C(C)O3)C2)C(=O)c2c(OC)cccc2C4=O)cc1 (some centres undefined)
- T/C (dose: 0.12 mg/kg/injection, schedule: Q01DX009 (ip), vehicle: water): 111 % of control
- T/C (dose: 1.0 mg/kg/injection, schedule: Q01DX009 (ip), vehicle: water): 154 % of control and 163 % of control
- T/C (dose: 2.0 mg/kg/injection, schedule: Q01DX009 (ip), vehicle: water): 160 % of control and 175 % of control
- T/C (dose: 4.0 mg/kg/injection, schedule: Q01DX009 (ip), vehicle: water): 151 % of control and 175 % of control
- T/C (dose: 8.0 mg/kg/injection, schedule: Q01DX009 (ip), vehicle: water): 86 % of control and 93 % of control

SMILES: COc1ccc(CC(N)C(=O)OCc2ccccc2)cc1N(CCCl)CCCl (centres undefined)
- T/C (dose: 1.56 mg/kg/injection, schedule: Q01DX009 (ip), vehicle: suspension in saline): 97 % of control
- T/C (dose: 3.12 mg/kg/injection, schedule: Q01DX009 (ip), vehicle: suspension in saline): 95 % of control
- T/C (dose: 6.25 mg/kg/injection, schedule: Q01DX009 (ip), vehicle: suspension in saline): 100 % of control

SMILES: COc1ccc(/C=N/NC(=O)c2ccc(OCc3nc4ccccc4[nH]3)cc2)cc1
- T/C (dose: 25.0 mg/kg/injection, schedule: Q01DX005 (ip), vehicle: saline with Tween-80): 100 % of control
- T/C [1]: 105 % of control
- T/C [2]: 100 % of control
- T/C [3]: 100 % of control

SMILES: Nc1ccc2ccc3ccc(N)nc3c2n1
- T/C [12]: 103 % of control
- T/C [13]: 91 % of control

SMILES: CC(C)(C)OC(=O)N1CCCC1C(=O)N1CCCC1C(=O)Oc1ccccc1 (centres undefined)
- T/C [14]: 100 % of control
- T/C [15]: 100 % of control
- T/C [16]: 100 % of control

SMILES: CCOC(=O)CNC(C)c1ccc(F)cc1 (centres undefined)
- T/C [14]: 100 % of control
- T/C [15]: 105 % of control
- T/C [16]: 103 % of control

SMILES: NC(=O)N=Nc1ccc(Cl)cc1
- T/C [1]: 104 % of control
- T/C [2]: 101 % of control
- T/C [3]: 104 % of control

SMILES: [Cl][Pt+2][Cl].[NH-]CC([NH-])c1ccccc1 (centres undefined)
- T/C (dose: 6.25 mg/kg/injection, schedule: Q04DX002 (ip), vehicle: saline with Tween-80): 179 % of control
- T/C (dose: 12.5 mg/kg/injection, schedule: Q01DX001 (ip), vehicle: Klucel (hydroxypropylcellulose) (HPC)): 152 % of control
- T/C (dose: 12.5 mg/kg/injection, schedule: Q04DX002 (ip), vehicle: saline with Tween-80): 194 % of control
- T/C (dose: 25.0 mg/kg/injection, schedule: Q01DX001 (ip), vehicle: Klucel (hydroxypropylcellulose) (HPC)): 179 % of control
- T/C (dose: 25.0 mg/kg/injection, schedule: Q04DX002 (ip), vehicle: saline with Tween-80): 220 % of control
- T/C (dose: 50.0 mg/kg/injection, schedule: Q01DX001 (ip), vehicle: Klucel (hydroxypropylcellulose) (HPC)): 157 % of control and 163 % of control

SMILES: CC1=CC(O)CC(C)(C)C1 (centres undefined)
- T/C (dose: 50.0 mg/kg/injection, schedule: Q01DX009 (ip), vehicle: saline): 106 % of control
- T/C (dose: 100.0 mg/kg/injection, schedule: Q01DX009 (ip), vehicle: saline): 100 % of control
- T/C (dose: 200.0 mg/kg/injection, schedule: Q01DX009 (ip), vehicle: saline): 99 % of control

SMILES: C=C(C)CC1=C(C)C(=O)C(C)=C(C)C1=O
- T/C (dose: 75.0 mg/kg/injection, schedule: Q04DX003 (ip), vehicle: Klucel (hydroxypropylcellulose) (HPC)): 110 % of control
- T/C (dose: 150.0 mg/kg/injection, schedule: Q04DX003 (ip), vehicle: Klucel (hydroxypropylcellulose) (HPC)): 105 % of control
- T/C (dose: 300.0 mg/kg/injection, schedule: Q04DX003 (ip), vehicle: Klucel (hydroxypropylcellulose) (HPC)): 122 % of control

SMILES: c1ccc2c(c1)CCc1c(-c3ccncc3)n[nH]c1-2
- T/C [7]: 108 % of control
- T/C [8]: 123 % of control
- T/C [9]: 106 % of control
- T/C [10]: 104 % of control
- T/C [11]: 100 % of control

SMILES: COC(=O)CN1CC1
- T/C (dose: 3.12 mg/kg/injection, schedule: Q01DX009 (ip), vehicle: saline with Tween-80): 100 % of control
- T/C (dose: 6.25 mg/kg/injection, schedule: Q01DX009 (ip), vehicle: saline with Tween-80): 95 % of control
- T/C (dose: 12.5 mg/kg/injection, schedule: Q01DX009 (ip), vehicle: saline with Tween-80): 94 % of control
- T/C (dose: 25.0 mg/kg/injection, schedule: Q01DX009 (ip), vehicle: saline with Tween-80): 95 % of control

SMILES: CCC1(O)CC(OC2CC(O)C(O)C(C)O2)c2c(O)c3c(c(O)c2C1C(=O)OC)C(=O)c1cccc(O)c1C3=O (centres undefined)
- T/C (dose: 1.56 mg/kg/injection, schedule: Q04DX003 (ip), vehicle: water): 104 % of control
- T/C (dose: 3.13 mg/kg/injection, schedule: Q04DX003 (ip), vehicle: water): 103 % of control
- T/C (dose: 6.25 mg/kg/injection, schedule: Q04DX003 (ip), vehicle: water): 103 % of control
- T/C (dose: 12.5 mg/kg/injection, schedule: Q04DX003 (ip), vehicle: water): 109 % of control
- T/C (dose: 25.0 mg/kg/injection, schedule: Q04DX003 (ip), vehicle: water): 109 % of control
- T/C (dose: 50.0 mg/kg/injection, schedule: Q04DX003 (ip), vehicle: water): 104 % of control
- T/C (dose: 100.0 mg/kg/injection, schedule: Q04DX003 (ip), vehicle: water): 119 % of control
- T/C (dose: 200.0 mg/kg/injection, schedule: Q04DX003 (ip), vehicle: water): 109 % of control

SMILES: C=C(C)C(=O)Nc1ccc(-n2[nH]c(C)c(N=Nc3ccc(N(C)C)cc3)c2=O)cc1
- T/C [1]: 98 % of control
- T/C [2]: 96 % of control
- T/C [3]: 100 % of control

SMILES: CCC1(c2ccc(C)cc2)C(=O)NC(=S)NC1=O
- T/C [12]: 102 % of control
- T/C [13]: 94 % of control

SMILES: CC(=O)N/N=C(\C(=O)OC(=NC1CCCCC1)NC1CCCCC1)c1ccccc1
- T/C [4]: 87 % of control
- T/C [5]: 87 % of control
- T/C [6]: 91 % of control

SMILES: O=C1c2ccccc2C(O)(C#Cc2ccccc2)c2c1oc1ccc3ccccc3c21 (centres undefined)
- T/C (dose: 50.0 mg/kg/injection, schedule: Q01DX009 (ip), vehicle: saline with Tween-80): 100 % of control
- T/C (dose: 100.0 mg/kg/injection, schedule: Q01DX009 (ip), vehicle: saline with Tween-80): 92 % of control
- T/C (dose: 200.0 mg/kg/injection, schedule: Q01DX009 (ip), vehicle: saline with Tween-80): 87 % of control

SMILES: C=C(COCNc1ccc(Cl)cc1Cl)C(=O)O
- T/C (dose: 50.0 mg/kg/injection, schedule: Q01DX009 (ip), vehicle: Klucel (hydroxypropylcellulose) (HPC)): 105 % of control
- T/C (dose: 100.0 mg/kg/injection, schedule: Q01DX009 (ip), vehicle: Klucel (hydroxypropylcellulose) (HPC)): 89 % of control
- T/C (dose: 200.0 mg/kg/injection, schedule: Q01DX009 (ip), vehicle: Klucel (hydroxypropylcellulose) (HPC)): 99 % of control

SMILES: CN(C(=O)C(Cl)Cl)c1ccc(-c2csc(-c3ccc(O)cc3)n2)cc1
- T/C (dose: 100.0 mg/kg/injection, schedule: Q04DX003 (ip), vehicle: Klucel (hydroxypropylcellulose) (HPC)): 100 % of control
- T/C (dose: 200.0 mg/kg/injection, schedule: Q04DX003 (ip), vehicle: Klucel (hydroxypropylcellulose) (HPC)): 99 % of control
- T/C (dose: 400.0 mg/kg/injection, schedule: Q04DX003 (ip), vehicle: Klucel (hydroxypropylcellulose) (HPC)): 99 % of control
